Where “and” joins values, the source holds several entries; their conditions need not be identical. Equal entries are not always repeated. Inconclusive results and toxic doses are left out. Cut-off read from the data, not from the text of the source: active = T/C of 150% or more; inactive = T/C below 125%.
Test system: L1210 leukemia ip in BDF1 mice, survival T/C
Assay: NCI In Vivo Anticancer Drug Screen. Data for tumor model L1210 Leukemia (intraperitoneal) in B6D2F1 (BDF1) mice
Settings: endpoint: mean survival time, higher = longer survival
Method in brief: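 Value reflects the ratio of survival in compound-treated mice to survival in vehicle-treated controls, with both groups carrying the same transplanted tumor.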

[1] = dose: 100.0 mg/kg/injection, schedule: Q01DX009 (ip), vehicle: saline
[2] = dose: 100.0 mg/kg/injection, schedule: Q04DX003 (ip), vehicle: saline
[3] = dose: 200.0 mg/kg/injection, schedule: Q04DX003 (ip), vehicle: saline
[4] = dose: 400.0 mg/kg/injection, schedule: Q04DX003 (ip), vehicle: saline
[5] = dose: 100.0 mg/kg/injection, schedule: Q01DX009 (ip), vehicle: saline with Tween-80
[6] = dose: 200.0 mg/kg/injection, schedule: Q01DX009 (ip), vehicle: saline with Tween-80
[7] = dose: 100.0 mg/kg/injection, schedule: Q01DX001 (ip), vehicle: saline with Tween-80
[8] = dose: 100.0 mg/kg/injection, schedule: Q04DX003 (ip), vehicle: saline with Tween-80
[9] = dose: 200.0 mg/kg/injection, schedule: Q01DX001 (ip), vehicle: saline with Tween-80
[10] = dose: 200.0 mg/kg/injection, schedule: Q04DX003 (ip), vehicle: saline with Tween-80
[11] = dose: 400.0 mg/kg/injection, schedule: Q01DX001 (ip), vehicle: saline with Tween-80
[12] = dose: 12.5 mg/kg/injection, schedule: Q01DX009 (ip), vehicle: saline
[13] = dose: 25.0 mg/kg/injection, schedule: Q01DX009 (ip), vehicle: saline
[14] = dose: 50.0 mg/kg/injection, schedule: Q01DX009 (ip), vehicle: saline
[15] = dose: 100.0 mg/kg/injection, schedule: Q01DX001 (ip), vehicle: saline
[16] = dose: 400.0 mg/kg/injection, schedule: Q04DX003 (ip), vehicle: saline with Tween-80
[17] = dose: 50.0 mg/kg/injection, schedule: Q04DX003 (ip), vehicle: saline with Tween-80
[18] = dose: 25.0 mg/kg/injection, schedule: Q04DX003 (ip), vehicle: saline with Tween-80

Measured: T/C

CN(C)C(=O)Nc1ccc(Cl)cc1
inactive: [1] 91 % of control | [2] 93 % of control | dose: 200.0 mg/kg/injection, schedule: Q01DX009 (ip), vehicle: saline 100 % of control | [3] 98 % of control | [4] 101 % of control

C#CCOS(C)(=O)=O
inactive: dose: 10.0 mg/kg/injection, schedule: Q01DX009 (ip), vehicle: saline 108 % of control | dose: 10.0 mg/kg/injection, schedule: Q04DX002 (ip), vehicle: saline 107 % of control | dose: 20.0 mg/kg/injection, schedule: Q01DX009 (ip), vehicle: saline 124 % of control | dose: 20.0 mg/kg/injection, schedule: Q04DX002 (ip), vehicle: saline 103 % of control | dose: 40.0 mg/kg/injection, schedule: Q04DX002 (ip), vehicle: saline 103 % of control

C[N+](C)(C)CC1C2C=CC(C2)C1CO (stereo not drawn)
inactive: [2] 110 % of control | [3] 107 % of control | [4] 100 % of control

C/C=C/C=N/Nc1ccccc1
inactive: dose: 50.0 mg/kg/injection, schedule: Q04DX003 (ip), vehicle: other 87 % of control | dose: 100.0 mg/kg/injection, schedule: Q01DX001 (ip), vehicle: other 97 % of control | dose: 100.0 mg/kg/injection, schedule: Q04DX003 (ip), vehicle: other 92 % of control | dose: 200.0 mg/kg/injection, schedule: Q01DX001 (ip), vehicle: other 90 % of control | dose: 200.0 mg/kg/injection, schedule: Q04DX003 (ip), vehicle: other 93 % of control

NC(N)=N/N=C/c1cccnc1
inactive: dose: 15.0 mg/kg/injection, schedule: Q01DX Z (oral), vehicle: saline 97 % of control | dose: 30.0 mg/kg/injection, schedule: Q01DX Z (oral), vehicle: saline 97 % of control | dose: 60.0 mg/kg/injection, schedule: Q01DX Z (oral), vehicle: saline 97 % of control and 100 % of control | dose: 120.0 mg/kg/injection, schedule: Q01DX Z (oral), vehicle: saline 96 % of control and 107 % of control | dose: 240.0 mg/kg/injection, schedule: Q01DX Z (oral), vehicle: saline 94 % of control | dose: 480.0 mg/kg/injection, schedule: Q01DX Z (oral), vehicle: saline 89 % of control

CC12CCCCC1=CC(=O)CCC2 (stereo not drawn)
inactive: dose: 50.0 mg/kg/injection, schedule: Q01DX009 (ip), vehicle: saline with Tween-80 98 % of control | [5] 98 % of control | [6] 98 % of control

CSc1ncnc2c1ncn2-n1cccc1
inactive: [7] 104 % of control | dose: 100.0 mg/kg/injection, schedule: Q01DX009 (ip), vehicle: Klucel (hydroxypropylcellulose) (HPC) 97 % of control | dose: 100.0 mg/kg/injection, schedule: Q04DX003 (ip), vehicle: Klucel (hydroxypropylcellulose) (HPC) 93 % of control | [8] 103 % of control | [9] 106 % of control | dose: 200.0 mg/kg/injection, schedule: Q01DX009 (ip), vehicle: Klucel (hydroxypropylcellulose) (HPC) 95 % of control | dose: 200.0 mg/kg/injection, schedule: Q04DX003 (ip), vehicle: Klucel (hydroxypropylcellulose) (HPC) 96 % of control | [10] 101 % of control | [11] 95 % of control | dose: 400.0 mg/kg/injection, schedule: Q01DX009 (ip), vehicle: Klucel (hydroxypropylcellulose) (HPC) 101 % of control | dose: 400.0 mg/kg/injection, schedule: Q04DX003 (ip), vehicle: Klucel (hydroxypropylcellulose) (HPC) 98 % of control

Clc1ccc2n[nH]c(Cl)c2c1
inactive: [12] 95 % of control | [13] 101 % of control | [14] 98 % of control | [15] 92 % of control | [1] 96 % of control | dose: 200.0 mg/kg/injection, schedule: Q01DX001 (ip), vehicle: saline 92 % of control | dose: 400.0 mg/kg/injection, schedule: Q01DX001 (ip), vehicle: saline 102 % of control

OCCOCc1ccccc1
inactive: [2] 104 % of control | [3] 98 % of control | [4] 100 % of control

OCc1ccn2c1C(O)CC2 (stereo not drawn)
inactive: dose: 29.0 mg/kg/injection, schedule: Q01DX009 (ip), vehicle: saline 100 % of control | dose: 45.0 mg/kg/injection, schedule: Q01DX009 (ip), vehicle: saline 115 % of control | [8] 108 % of control | dose: 150.0 mg/kg/injection, schedule: Q01DX009 (ip), vehicle: saline 111 % of control | [10] 117 % of control | [16] 97 % of control

NNC(=O)c1ccccc1
inactive: [12] 100 % of control | [13] 97 % of control | dose: 50.0 mg/kg/injection, schedule: Q01DX001 (ip), vehicle: saline 90 % of control | [14] 111 % of control | [17] 97 % of control | [15] 108 % of control | [1] 100 % of control

CC1CN1C1=C(Br)C(=O)C(N2CC2C)=C(Br)C1=O (stereo not drawn)
inactive: dose: 1.56 mg/kg/injection, schedule: Q01DX009 (ip), vehicle: Klucel (hydroxypropylcellulose) (HPC) 95 % of control | dose: 1.56 mg/kg/injection, schedule: Q04DX003 (ip), vehicle: saline with Tween-80 98 % of control | dose: 3.12 mg/kg/injection, schedule: Q01DX009 (ip), vehicle: Klucel (hydroxypropylcellulose) (HPC) 98 % of control | dose: 3.12 mg/kg/injection, schedule: Q04DX003 (ip), vehicle: saline with Tween-80 104 % of control | dose: 6.25 mg/kg/injection, schedule: Q01DX009 (ip), vehicle: Klucel (hydroxypropylcellulose) (HPC) 95 % of control | dose: 6.25 mg/kg/injection, schedule: Q04DX003 (ip), vehicle: saline with Tween-80 98 % of control | dose: 12.5 mg/kg/injection, schedule: Q01DX009 (ip), vehicle: Klucel (hydroxypropylcellulose) (HPC) 90 % of control | dose: 12.5 mg/kg/injection, schedule: Q04DX003 (ip), vehicle: saline with Tween-80 95 % of control | [18] 98 % of control

CC1CCCC(CN=Cc2ccc(O)cc2O)[N-]1.CC1CCCC(CN=Cc2ccc(O)cc2O)[N-]1.[Ni+2] (stereo not drawn)
inactive: [18] 101 % of control | [17] 103 % of control | [8] 98 % of control

O=C(O)Cc1ccc(Cl)cc1
inactive: dose: 75.0 mg/kg/injection, schedule: Q04DX003 (ip), vehicle: saline with Tween-80 93 % of control | [7] 98 % of control | dose: 150.0 mg/kg/injection, schedule: Q04DX003 (ip), vehicle: saline with Tween-80 96 % of control | [9] 95 % of control | dose: 300.0 mg/kg/injection, schedule: Q04DX003 (ip), vehicle: saline with Tween-80 87 % of control | [11] 91 % of control

O=c1cc(Nc2ccccc2)[nH]c(=O)[nH]1
inactive: dose: 100.0 mg/kg/injection, schedule: Q01DX001 (ip), vehicle: Klucel (hydroxypropylcellulose) (HPC) 92 % of control | dose: 200.0 mg/kg/injection, schedule: Q01DX001 (ip), vehicle: Klucel (hydroxypropylcellulose) (HPC) 93 % of control | dose: 400.0 mg/kg/injection, schedule: Q01DX001 (ip), vehicle: Klucel (hydroxypropylcellulose) (HPC) 95 % of control

CCOC(=O)c1cc(N)c(N2CCCC2)cc1Cl
inactive: [5] 109 % of control | [8] 93 % of control | [6] 98 % of control | [10] 93 % of control | dose: 400.0 mg/kg/injection, schedule: Q01DX009 (ip), vehicle: saline with Tween-80 95 % of control | [16] 93 % of control

— PubChem BioAssay AID248 (DTP/NCI, 2004)
